Data from patent US5885987A, “Phenylene derivatives” (Kowa Co., Ltd., priority 1996, dated 1999).

Assays:
H1 receptor = molecular target: T1, H1 receptor (Cavia porcellus, UniProt P31389); test: H1 receptor binding inhibition test ([^3 H]mepyramin, guinea pig cerebromembranous protein); conditions: for inhibition at 100 µM: a: 100 μM; for Kd: read-out: H1 receptor, dissociation constant KD
T1 construct: guinea pig cerebromembranous protein; from tissue; host or cells: guinea pig cerebral (brain) membranes
T1 sequence (P31389 whole entry): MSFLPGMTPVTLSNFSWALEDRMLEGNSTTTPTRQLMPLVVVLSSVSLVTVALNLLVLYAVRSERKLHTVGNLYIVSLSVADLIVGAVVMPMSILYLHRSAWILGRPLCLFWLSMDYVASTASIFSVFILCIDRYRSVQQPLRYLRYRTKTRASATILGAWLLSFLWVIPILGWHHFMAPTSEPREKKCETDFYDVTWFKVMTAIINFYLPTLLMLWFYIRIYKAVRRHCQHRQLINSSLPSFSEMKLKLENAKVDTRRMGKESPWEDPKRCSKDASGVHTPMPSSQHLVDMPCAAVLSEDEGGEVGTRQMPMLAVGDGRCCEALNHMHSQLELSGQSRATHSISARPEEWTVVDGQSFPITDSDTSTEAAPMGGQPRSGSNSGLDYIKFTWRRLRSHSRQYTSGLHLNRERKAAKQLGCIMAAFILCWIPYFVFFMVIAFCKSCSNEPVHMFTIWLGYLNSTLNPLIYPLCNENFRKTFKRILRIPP
Method: 1) H1 Receptor Binding Inhibition Test
An ice-cooled phosphate buffer was added to terminate the reaction, followed by immediate filtration through a Wattman CF/C filter. The filter was washed twice with 20 ml aliquots of the ice-cooled buffer. The radioactivity of the residue was measured by a liquid scintillation counter. From a measurement value obtained without the addition of the test compound and measurements values obtained upon addition of the test compound at various concentrations, the dose-response of the inhibitory action of the test compound was measured and the 50% inhibitory concentration (IC50) was determined. Using the Cheng-Prusoff formula, a dissociation constant was calculated from the IC50. In a binding assay, 10^-4 M R(-)dimethindene was used for the measurement of a nonspecific binding.

LTD4 receptor = molecular target: T2, LTD4 receptor (Cavia porcellus, UniProt Q2NNR5); test: LTD4 receptor binding inhibition test ([^3 H]leukotriene D4, guinea pig pulmomembranous protein); conditions: for Kd: read-out: LTD4 receptor, dissociation constant KD; for inhibition at 100 µM: a: 100 μM; for inhibition at 100 µM / inhibition at 10 µM: read-out: LTD4 receptor (%), inhibition rate; for inhibition at 10 µM: b: 10 μM
T2 construct: guinea pig pulmomembranous protein; from tissue; host or cells: guinea pig lung membranes
T2 sequence (Q2NNR5 1-340): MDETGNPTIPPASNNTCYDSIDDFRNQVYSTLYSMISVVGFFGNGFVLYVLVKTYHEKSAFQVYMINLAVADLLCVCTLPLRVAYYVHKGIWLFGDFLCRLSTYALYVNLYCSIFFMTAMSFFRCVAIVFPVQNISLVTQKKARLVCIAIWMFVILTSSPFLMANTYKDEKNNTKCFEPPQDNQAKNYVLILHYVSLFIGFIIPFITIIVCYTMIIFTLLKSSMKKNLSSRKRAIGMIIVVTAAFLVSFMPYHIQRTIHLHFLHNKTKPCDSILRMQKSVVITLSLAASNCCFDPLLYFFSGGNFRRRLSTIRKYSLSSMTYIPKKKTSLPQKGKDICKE
Method: 2) LTD4 Receptor Binding Inhibition Test
An ice-cooled tris hydrochloride/sodium chloride buffer (10 mM/100 mM, pH 7.5) was added to terminate the reaction, followed by immediate filtration through a Wattman CF/C filter. The filter was washed twice with 20 ml aliguots of the ice-cooled buffer. The radioactivity of the residue was measured by a liquid scintillation counter. […] In a binding assay, 2 μM leukotriene D4 was used for the measurement of a nonspecific binding.

[1] = read-out: H1 receptor (%), inhibition rate

Kd (LTD4 receptor) [nM]	Structure (SMILES)	further results
1240	O=C1CCc2cc(OCc3ccc(OCc4ccc5ccccc5n4)cc3)ccc2N1 [Example 22]	inhibition at 100 µM (H1 receptor; [1]): 45%
1560	Cc1ccc(OCc2cccc(OCc3ccc4ccccc4n3)c2)c2ccc(=O)[nH]c12 [Example 2, 8-Methyl-5-[3-(2-quinolinylmethoxy)benzyloxy]-1,2-dihydroquinolin-2-one]	–
215	CC1(C)C(=O)Nc2ccc(OCc3cccc(OCc4ccc5ccccc5n4)c3)cc21 [Example 14, 3,3'-Dimethyl-5-[3-(2-quinolinylmethoxy)benzyloxy]-2,3-dihydro-1H-indol-2-one]	inhibition at 100 µM (H1 receptor; [1]): 29%
196	O=C1CCc2ccc(OCc3cccc(OCc4ncc5ccccc5n4)c3)cc2N1 [Example 34, 7-[3-(2-quinazolinylmethoxy)benzyloxy]-1,2,3,4-tetrahydroquinolin-2-one]	Kd (H1 receptor): 100000 nM
–	O=C1CCCc2cc(OC(=O)c3cccc(OCc4ccc5ccccc5n4)c3)ccc2N1 [Example 57]	Kd (H1 receptor): 57900 nM; Ki (LTD4 receptor; read-out: LTD4 receptor, dissociation constant KD (converted)): 851 nM
331	CC1(C)C(=O)Nc2c(OC(=O)c3ccc(OCc4ccc5ccccc5n4)cc3)cccc21 [Example 69, 3,3-Dimethyl-7-(4-(2-quinolinylmethoxy)benzoyloxyy]-2,3-dihydro-1H-indol-2-one]	inhibition at 100 µM (H1 receptor; [1]): 33%
303	Cc1ccc(OCc2cccc(OCc3ccc4ccccc4n3)c2)c2c1NC(=O)C2(C)C [Example 13, 4-[3-(2-Quinolinylmethoxy)benzyloxy]-3,3,7-trimethyl-2,3-dihydro-1H-indol-2-one]	–
703	O=C1Cc2c(cccc2OCc2cccc(OCc3ccc4ccccc4n3)c2)N1 [Example 12, 4-[3-(2-Quinolinylmethoxy)benzyloxy)-2,3-dihydro-1H-indol-2-one]	H1 receptor (%), inhibition rate (H1 receptor; concentration not given): 45%
11700	Cc1ccc(OCc2cccc(OCc3ccc4ccccc4n3)c2)c2cc(C(=O)O)c(=O)[nH]c12 [Example 51, 8-methyl-2-oxo-5-[3-(2-quinolinylmethoxy)benzyloxy]-1,2-dihydroquinoline-3-carboxylic acid]	–
–	Cc1ccc(OCc2ccc(OCc3ccc4ccccc4n3)cc2)c2cc(Cl)c(=O)[nH]c12 [Example 20, 3-Chloro-8-methyl-5-[4-(2-quinolinylmethoxy)benzyloxy]-1,2-dihydroquinolin-2-one]	inhibition at 100 µM (LTD4 receptor): 0%
304	O=C1CCc2ccc(OCc3cccc(OCc4ccc5ccc(Cl)cc5n4)c3)cc2N1 [Example 31, 7-[3-(7-chloro-2-quinolinylmethoxy)benzyloxy]-1,2,3,4-tetrahydroquinolin-2-one]	Kd (H1 receptor): 19800 nM
302	Cc1ccc(OCc2ccc(OCc3ccc4ccccc4n3)cc2)c2cc(C(=O)O)c(=O)[nH]c12 [Example 52, 8-methyl-2-oxo-5-[4-(2-quinolinylmethoxy)benzyloxy]-1,2-dihydroquinoline-3-carboxylic acid]	–
500	O=C1CCc2ccc(OCc3ccc(OCc4ccc5ccccc5n4)cc3)cc2N1 [Example 23]	inhibition at 100 µM (H1 receptor; [1]): 41%
–	O=C1CS(=O)(=O)c2cc(NC(=O)c3cccc(OCc4ccc5ccccc5n4)c3)ccc2N1 [Example 80]	inhibition at 100 µM (H1 receptor; [1]): 36%; inhibition at 10 µM (LTD4 receptor): 27%
139	Cc1ccc(OCc2ccc(OCc3ccc4ccccc4n3)cc2)c2c1NC(=O)C2(C)C [Example 27, 4-[4-(2-Quniolinylmethoxy)benzyloxy]-3,3,7-trimethyl-2,3-dihydydro-1H-indol-2-one]	inhibition at 100 µM (H1 receptor; [1]): 38%
–	O=C1CCc2ccc(OCc3ccc(OCc4nc5ccccc5s4)cc3)cc2N1 [Example 42, 7-(4-(2-benzothiazolylmethoxy)benzyloxy]-1,2,3,4-tetrahydroquinolin-2-one]	Kd (H1 receptor): 83600 nM; inhibition at 10 µM (LTD4 receptor): 17%
5510	CCOCCn1c(COc2cccc(COc3ccc(C)c4c3C(C)(C)C(=O)N4)c2)nc2ccccc21 [Example 43, 4-(3-(N-ethoxylethylbenzimidazol-2-yl-methoxy)benzyloxy)-3,3,7-trimethyl-2,3-dihydro-1H-indol-2-one]	Kd (H1 receptor): 6060 nM
2500	CCCCCCc1cc(OCc2cccc(OCc3ccc4ccccc4n3)c2)cc2c1C(C)(C)C(=O)N2 [Example 16, 3,3-Dimethyl-4-(n-hexyl)-6-[3-(2-quinolinylmethoxy)benzyloxy]-2,3-dihydro-1H-indol-2-one]	inhibition at 100 µM (H1 receptor; [1]): 48%

Kd (LTD4 receptor) [nM]	Structure (SMILES)	further results
60	O=C1CCCc2cc(OCc3cccc(OCc4ncc5ccccc5n4)c3)ccc2N1 [Example 82, 7-[3-(2-quinazolinylmethoxy)benzyloxy]-2,3,4,5-tetrahydro-1H-benz[b]azepin-2-one]	inhibition at 10 µM (H1 receptor; b: 10 μM, read-out: H1 receptor (%), inhibition rate): 5%
1400	CC1(C)C(=O)Nc2cc(OCc3ccc(OCc4ccc5ccccc5n4)cc3)ccc21 [Example 28, 3,3-Dimethyl-6-[4-(2-quinolinylmethoxy)benzyloxy]-2,3-dihydro-1H-indol-2-one]	inhibition at 100 µM (H1 receptor; [1]): 30%
–	O=C1CSc2cc(OC(=O)c3ccc(OCc4ccc5ccccc5n4)cc3)ccc2N1 [Example 66, 7-[4-(2-Quinolinylmethoxy)benzoyloxy]-3 4-dihydro-2H-1,4-benzothiazin-3-one]	inhibition at 10 µM (LTD4 receptor): 28%
13	O=C1CSc2cc(OCc3cccc(/C=C/c4ccc5ccc(Cl)cc5n4)c3)ccc2N1 [Example 81, trans-7-[3-[2-(7-chloroquinolin-2-yl)ethenyl]benzyloxy]-2H-3,4-dihydro-1,4-benzothiazin-3-one]	–
335	Cc1ccc(OCc2cccc(OCc3ccc4ccccc4n3)c2)c2cc(-c3nn[nH]n3)c(=O)[nH]c12 [Example 47, 8-methyl-5-[3-(2-quinolinylmethoxy)benzyloxy]-3-(5-tetrazolyl)-1,2-dihydroquinolin-2-one]	–
–	O=C1CSc2cc(OC(=O)c3cccc(OCc4ccc5ccccc5n4)c3)ccc2N1 [Example 58, 7-[3-(2-Quinolinylmethoxy]benzoyloxy]-3,4-dihydro-2H-1,4-benzothiazin-3-one]	inhibition at 100 µM (LTD4 receptor): 0%
46.2	O=C1CSc2cc(NC(=O)c3cccc(OCc4ccc5ccccc5n4)c3)ccc2N1 [Example 72, 7-[3-(2-Quinolinylmethoxy)benzoylamino]-3,4-dihydro-2H-1,4-benzothiazin-3-one]	–
1080	O=C(O)c1cc2cc(OCc3cccc(OCc4ccc5ccccc5n4)c3)ccc2[nH]c1=O [Example 50, 2-oxo-6-[3-(2-quinolinylmethoxy)benzyloxy]-1,2-dihydroquinoline-3-carboxylic acid]	–
–	Cc1ccc(OCc2cccc(OCc3ccc4ccccc4n3)c2)c2cc(Cl)c(=O)[nH]c12 [Example 4]	inhibition at 100 µM (LTD4 receptor): 0%
–	Cc1ccc(OCc2ccc(OCc3ccc4ccccc4n3)cc2)c2cc(C#N)c(=O)[nH]c12 [Example 19, 3-Cyano-8-methyl-5-[4-(2-quinolinylmethoxy)benzyloxy]-1,2-dihydroquinolin-2-one]	inhibition at 100 µM (LTD4 receptor): 0%
546000	O=C1CSc2cc(OCc3ccc(OCc4ccc5ccccc5n4)cc3)ccc2N1 [Example 26, 7-[4-(2-Quinolinylmethoxy)benzyloxy]-3,4-dihydro-2H-1,4-benzothiazin-3-one]	–
304	Cc1ccc(OCc2ccc(OCc3ccc4ccccc4n3)cc2)c2cc(-c3nn[nH]n3)c(=O)[nH]c12 [Example 48, 8-methyl-5-[4-(2-quinolinylmethoxy)benzyloxy]-3-(5-tetrazolyl)-1,2-dihydroquinolin-2-one]	–
–	O=C1CSc2cc(NC(=O)c3ccc(OCc4ccc5ccccc5n4)cc3)ccc2N1 [Example 73]	inhibition at 10 µM (LTD4 receptor): 20%
118	N#Cc1cc2cc(OCc3cccc(OCc4ccc5ccccc5n4)c3)ccc2[nH]c1=O [Example 1, 3-cyano-6-[3-(2-quinolinylmethoxy)benzyloxy]-1,2-dihydroquinolin-2-one]	–
235000	O=C1CS(=O)(=O)c2cc(OCc3cccc(OCc4ccc5ccccc5n4)c3)ccc2N1 [Example 74, 7-[3-(2-quinolinylmethoxy)benzyloxy]-3,4-dihydro-2H-1,4-benzothiazin-3-one1,1-dioxide]	–
–	Cc1ccc(OC(=O)c2ccc(OCc3ccc4ccccc4n3)cc2)c2cc(C#N)c(=O)[nH]c12 [Example 62, 3-Cyano-8-methyl-5-[4-(2-quinolinylmethoxy)benzoyloxy]-1,2-dihydroquinolin-2-one]	LTD4 receptor (%), inhibition rate (LTD4 receptor; concentration not given): 0%
40000	Cc1ccc(OCc2cccc(OCc3ccc4ccccc4n3)c2)c2c1NC(=S)C2(C)C [Example 49, 4-[3-(2-quinolinylmethoxy)benzyloxy]-3,3,7-trimethyl-2,3-dihydro-1H-indol-2-thione]	–
